Assay results reported in publication PMC9329436, “Optimization of the 4-anilinoquin(az)oline scaffold as epidermal growth factor receptor (EGFR) inhibitors for chordoma utilizing a toxicology profiling assay platform” (Scientific Reports, 2022).

Legend:
U-CH2 chordoma cell line = test: Cell viability assay (alamarBlue, 72 h), U-CH2; type: cell-based, human; settings: n = 4, 72 h
In short: (§1)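 Cells grown in 4:1 IMDM:RPMI with 10% FBS on gel-coated flasks, dosed in quadruplicate 24 h after seeding in 384-well plates.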

[1] = test system: CH22 patient-derived chordoma cell line; test: Cell viability assay (alamarBlue, 72 h), CH22; type: cell-based, human; settings: n = 4, 72 h
Method: (§2) Chordoma cell lines were cultured as described previously[10],[12],[33],[34]. Briefly, U-CH1 and U-CH2 cell lines were cultured in 4:1 IMDM:RPMI medium supplemented with 10% fetal bovine serum (FBS) and 1% penicillin/streptomycin in gel-coated flasks. […] CH22, UM-Chor1, U-CH12, and U-CH7 cell lines were cultured in RPMI medium supplemented with 10% FBS and 1% penicillin/streptomycin. The cell lines all undergo regular mycoplasma screening.
(§3) Cells were seeded in 384 well plates and were treated with test compound in quadruplicate 24 h after plating. Cell viability was assessed at 72 h using alamarBlue (ThermoFisher, USA). […] IC50 values were determined by four-parameter nonlinear regression analyses using GraphPad Prism™ version 8 software (San Diego, CA).

HL60 cells = test: AsedaSciences SYSTEMETRIC Cell Health Screen (flow cytometry toxicity profiling); settings: HL60, 4 h, 5 nM–100 µM; for CC: Cell Cycle score / CM: Cell morphology score / CMI: Cell membrane integrity score / GSH: Glutathione score / MMP: Mitochondrial membrane depolarization score / NMI1: Nuclear membrane integrity 1 score / NMI2: Nuclear membrane integrity 2 score / ROS: Reactive superoxide species score: probability 0–1, n = 2; for CHI: Cell Health Index: probability (0–1) of high-risk class, n = 2
In short: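 HL60 cells (100,000 per well) exposed 4 h at 37 °C, 5% CO2 to 10-step 3× dilutions (5 nM–100 µM), in duplicate. Cells then stained with mitochondrial and cell-stress reporter dyes and read by ungated flow cytometry over twelve parameters. Cell Health Index and eight endpoint scores come from an ML classifier trained on 300 high/low-risk compounds.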

[2] = test system: U-CH7 patient-derived chordoma cell line; test: Cell viability assay (alamarBlue, 72 h), U-CH7; type: cell-based, human; settings: n = 4, 72 h
Method: as §2, §3

EGFR = EGFR (Homo sapiens, UniProt P00533); test: ProQinase in-cell EGFR assay (EGFR phosphorylation in A431 cells); type: cell-based; parameters: This cell line endogenously expresses a high level of EGFR; endogenous in cells; host or cells: A431
EGFR, sequence (P00533 25-1210): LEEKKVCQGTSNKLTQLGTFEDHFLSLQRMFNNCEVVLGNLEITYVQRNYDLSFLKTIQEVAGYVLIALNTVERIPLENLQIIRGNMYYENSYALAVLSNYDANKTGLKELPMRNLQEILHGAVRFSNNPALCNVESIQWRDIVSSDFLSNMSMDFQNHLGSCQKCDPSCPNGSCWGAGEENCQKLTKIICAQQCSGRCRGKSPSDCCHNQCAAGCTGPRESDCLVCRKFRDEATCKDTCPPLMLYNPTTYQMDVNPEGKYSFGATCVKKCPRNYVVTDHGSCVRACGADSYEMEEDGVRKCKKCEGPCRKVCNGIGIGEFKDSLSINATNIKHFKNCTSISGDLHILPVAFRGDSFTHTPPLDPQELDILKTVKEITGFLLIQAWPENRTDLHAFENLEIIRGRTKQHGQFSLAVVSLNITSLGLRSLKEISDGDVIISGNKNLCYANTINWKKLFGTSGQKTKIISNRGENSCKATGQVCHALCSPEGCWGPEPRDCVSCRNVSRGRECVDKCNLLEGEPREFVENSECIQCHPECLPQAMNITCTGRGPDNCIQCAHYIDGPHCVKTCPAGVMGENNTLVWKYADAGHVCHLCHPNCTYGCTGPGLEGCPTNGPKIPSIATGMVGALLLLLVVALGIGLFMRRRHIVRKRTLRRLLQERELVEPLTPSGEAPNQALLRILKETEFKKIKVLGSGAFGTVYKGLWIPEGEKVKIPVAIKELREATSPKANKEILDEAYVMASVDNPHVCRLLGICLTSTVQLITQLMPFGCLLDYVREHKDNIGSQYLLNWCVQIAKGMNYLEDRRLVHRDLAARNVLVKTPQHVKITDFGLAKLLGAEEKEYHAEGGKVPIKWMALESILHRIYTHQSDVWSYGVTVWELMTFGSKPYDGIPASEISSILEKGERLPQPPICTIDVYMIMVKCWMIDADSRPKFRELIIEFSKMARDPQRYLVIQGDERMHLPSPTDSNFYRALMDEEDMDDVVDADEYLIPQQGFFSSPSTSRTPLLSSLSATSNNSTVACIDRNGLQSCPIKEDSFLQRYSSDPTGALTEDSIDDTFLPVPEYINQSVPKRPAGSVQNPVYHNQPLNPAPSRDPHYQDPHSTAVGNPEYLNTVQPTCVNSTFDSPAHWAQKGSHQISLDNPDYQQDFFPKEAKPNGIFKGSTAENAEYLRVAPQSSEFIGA
Text: In addition, we ran an EGFR in-cell target engagement assay, measuring in-cell EGFR phosphorylation, using the human epidermoid carcinoma cell line A431. This cell line endogenously expresses a high level of EGFR, and stimulation of these cells with human epidermal growth factor (EGF) results in receptor tyrosine autophosphorylation.

[3] = test system: U-CH12 patient-derived chordoma cell line; test: Cell viability assay (alamarBlue, 72 h), U-CH12; type: cell-based, human; settings: n = 4, 72 h
Method: as §2, §3

[4] = test system: WS1 human fibroblast cell line; test: Cell viability assay, WS1 toxicity control; type: cell-based; settings: n = 4, nonspecific toxicity control
Method: as §3

[5] = test system: UM-Chor1 patient-derived chordoma cell line; test: Cell viability assay (alamarBlue, 72 h), UM-Chor1; type: cell-based, human; settings: n = 4, 72 h
Method: as §2, §3

U-CH1 chordoma cell line = test: Cell viability assay (alamarBlue, 72 h), U-CH1; type: cell-based, human; settings: n = 4, 72 h
In short: as §1

[6] = ProQinase in-cell EGFR assay, A431 cells, n = 1

SMILES	IC50 (U-CH2 chordoma cell line) [µM]	IC50 [1] [µM]	CC: Cell Cycle score (HL60 cells)	CM: Cell morphology score (HL60 cells)	CMI: Cell membrane integrity score (HL60 cells)	GSH: Glutathione score (HL60 cells)	MMP: Mitochondrial membrane depolarization score (HL60 cells)	NMI1: Nuclear membrane integrity 1 score (HL60 cells)	NMI2: Nuclear membrane integrity 2 score (HL60 cells)	ROS: Reactive superoxide species score (HL60 cells)	CHI: Cell Health Index (HL60 cells)	IC50 [2] [µM]	IC50 (EGFR; [6]) [µM]	IC50 [3] [µM]	IC50 [4] [µM]	IC50 [5] [µM]	IC50 (U-CH1 chordoma cell line) [µM]	IC50 (EGFR; in-cell EGFR inhibition) [µM]	U-CH2 IC50 (U-CH2 chordoma cell line)	U-CH1 IC50 (U-CH1 chordoma cell line)
C#Cc1ccc(F)c(Nc2ncnc3ccc(I)cc23)c1 [Compound 34]	> 100	> 100	0.25	0.025	0.014	0.044	0.030	0.17	0.078	0.074	0.18	> 100	0.76	> 100	> 100	> 100	27			
C#Cc1cccc(Nc2ncnc3cc(OC)ccc23)c1 [Compound 11]	1.2	> 100	0.52	0.050	0.032	0.0085	0.068	0.61	0.15	0.63	0.25	95	0.53	> 100	88	> 100	1.9			
C#Cc1cccc(Nc2ccnc3cc(I)ccc23)c1F [Compound 39]	15	40	0.64	0.98	0.30	0.92	0.60	0.15	0.75	0.99	0.43	49	1.7	33	40	62	2.4			
C#Cc1cccc(Nc2ncnc3cc(C(F)(F)F)ccc23)c1 [Compound 16]	15	8	0.92	1.00	0.87	0.79	1.00	0.6	0.93	1.00	0.78	63	> 20	7.5	18	31	12			
C#Cc1cc(Nc2ncnc3ccc(I)cc23)ccc1Cl [Compound 37]	5	> 100	0.080	0.26	0.54	0.18	0.24	0.41	0.33	0.91	0.33	> 100	2	> 100	> 100	> 100	31			
C#Cc1cc(Nc2ncnc3cc(OC)c(OC)cc23)ccc1F [Compound 44]	22	0.3	0.027	0.83	0.40	0.054	0.15	0.44	0.18	0.66	0.34	0.68	0.03	0.87	0.33	7.2	> 100	< 0.1		
C#Cc1cccc(Nc2ccnc3ccc(I)cc23)c1F [Compound 35]	> 100	> 100	0.12	0.0052	0.78	0.16	0.47	0.62	0.62	0.46	0.37	> 100	1.9	> 100	85	> 100	8.9			
C#Cc1cc(Nc2ncnc3cc(I)ccc23)ccc1F [Compound 40]	> 100	50	0.28	0.049	0.26	0.033	0.59	0.46	0.33	0.34	0.38	> 100	3.6	> 100	> 100	> 100	> 100		no activity	no activity
C#Cc1cccc(Nc2ncnc3cc(OC)c(OC)cc23)c1F [Compound 43]	7.1	5.8	0.059	0.0093	0.56	0.38	0.28	0.10	0.59	0.024	0.33	57	0.06	> 100	12	> 100	2			
